How the values were obtained:
[1] = system: subjects with mild to moderate AD; assay: Phase Ib multiple ascending dose study, safety and tolerability; type: in vivo; conditions: human, 50, 100 or 125 mg PO daily
Text: (§1) Subjects were enrolled in three cohorts of 8 subjects each.

[2] = Phase Ib study, CSF and plasma saracatinib levels (LC/MS/MS); type: in vivo, human; conditions: for estimated human brain concentration: using ratio of CSF:Brain in mouse; for trough CSF / free concentration of saracatinib in plasma / increase in CSF level: human; for free concentration of saracatinib in plasma: from trough CSF levels and FIG. 8 correlation
Protocol: Each point is from a different individual. The different dose groups are illustrated with different colors.
Each point represents trough CSF saracatinib level from a different human subject for the left three columns. The mouse trough CSF values are derived from brain levels at the 5 mg/kg/d dose that rescued memory deficits in FIGS. 3-5. Bars represent mean+sem.
Plasma samples are analyzed using solid-phase extraction followed by HPLCMS/MS. […] Calibration, quality control (QC) or blank plasma samples (200 μL) are pipetted into a standard 96-well plate. The appropriate internal standard (20 μL) is added to all samples (except the double blank to which 20 μL of methanol is added). 2% ammonium solution (1000 μL) is added to all wells and mixed. Solid-phase extraction is performed using Oasis HLB 30 mg 1 mL 96-well plates. The samples are conditioned with 1 mL methanol then 1 mL 2% ammonium solution. A 1 mL sample is loaded, washed with 1 mL 25:75, v:v methanol:water and eluted with 0.8 mL methanol. The samples are dried under oxygen-free nitrogen at 35° C. The dry residues are reconstituted in 200 μL of mobile phase, vortex mixed and transferred to 96-well plates. The vials are loaded onto HPLC-MS/MS and injected onto the reversed phase HPLC system. Calibration samples are prepared and analyzed in duplicate at LLOQ (lower limit of quantification) and ULOQ (upper limit of quantitation) and singly at all other levels. Independently prepared QC samples covering the calibration range are analyzed in duplicate and in triplicate at the dilution QC level. Plasma concentration data are quantified using an HPLC-MS/MS method and analyzed by standard methods using WinNonLin version 4.1 (Pharsight Corporation, Mountain View, Calif.).
as §1
In certain embodiments, obtaining the scans worked as a pilot to the collection of brain metabolism data for the Phase 2a trial. In addition, saracatinib levels were measured in this study using a GLP-validated LC/MS/MS assay. […] CSF levels are about a third of plasma free drug levels.

PS19 mice = assay: Immunohistochemistry of hippocampus of PS19 mice; type: in vivo, mouse
Text: FIG. 12A-12F illustrate reduced phospho-Tau accumulation in transgenic mice treated with AZD0530. FIG. 12A: Representative images of AT8 immunoreactivity in the dentate gyrus (DG) of the hippocampus in 9-month-old PS19 mice after 7 months of treatment with AZD0530 or Vehicle. Scale bar, […]. FIG. 12B: Quantification of AT8-positive area (%) in the dentate gyrus of the hippocampus in 9-month-old PS19 and WT mice after 7 months of treatment. Data are mean±SEM. n=7-10/group, each dot is one mouse. […] FIG. 12C: Representative images of immunofluorescent staining for AT8 in the CA1 of the hippocampus in 9-month-old PS19 and WT mice after 7 months of treatment. Scale bar, […]. FIG. 12D: Quantification of AT8-positive area in the CA1 of the hippocampus in 9-month-old PS19 and WT mice after 7 months of treatment. Data are mean±SEM. n=7-10/group, each dot is one mouse. […] FIG. 12E: Representative images of immunofluorescent staining for PHF1 in the CA1 of the hippocampus in 9-month-old PS19 and WT mice after 7 months of treatment. Scale bar, […]. FIG. 12F: Quantification of PHF1-positive area in the CA1 of the hippocampus in 9-month-old PS19 and WT mice after 7 months of treatment. Data are mean±SEM. n=7-10/group, each dot is one mouse.
FIGS. 13A-13D illustrate that chronic Fyn inhibition prevents glial activation in mutant Tau transgenic mice. FIG. 13A: Representative images of CD68 and Ibal double immunostaining in the CA3 region of the hippocampus from 9-month-old PS19 and WT mice after 7 months of treatment with AZD0530 or Vehicle. Scale bar, 20 μm. FIG. 13B: Quantification of CD68-positive area (%) within Ibal-immuoreative area in the CA3 segment of the hippocampus from 9-month-old PS19 and WT mice after 7 months of treatment. Data are as mean±SEM. n=7-10/group, each dot is one mouse. *p<0.05; One-way ANOVA with Dunnett's multiple comparisons test. FIG. 13C: Representative images of immunofluorescent staining GFAP in the dentate gyrus (DG) of the hippocampus in 9-month-old PS19 and WT mice after 7 months of treatment. Scale bar, 20 μm. FIG. 13D: Quantification of GFAP-positive area (%) in the dentate gyrus of the hippocampus in 9-month-old PS19 and WT mice after 7 months of treatment. n=7-10/group, each dot is one mouse. Data are mean±SEM. *p<0.05; One-way ANOVA with Dunnett's multiple comparisons test.
FIGS. 14A-14B illustrate the finding that loss of presynaptic marker SV2A in P301S Tau transgenic mice is rescued by Fyn inhibition. FIG. 14A: Representative images of immunofluorescent staining for SV2A in the CA3 region of the hippocampus from 9-month-old PS19 and WT mice after 7 months of treatment with AZD0530 or Vehicle. Dashed lines represent the divide between the cell body layer and synaptic region. The cell bodies in the image were used to capture similar ROI from each section. Scale bar, 20 μm. FIG. 14B: Quantification of SV2A-positive area (%) in the CA3 of the hippocampus in 9-month-old PS19 and WT mice after 7 months of treatment. Data are mean±SEM. n=7-10/group, each dot is one mouse.
FIGS. 19A-19D illustrate low magnification survey of gliosis in PS19 mice unaffected by AZD0530. FIG. 19A: Representative images of Ibal immunostaining in the hippocampus in 9-month-old PS19 and WT mice after 7 months of treatment. Scale bar, 100 m. FIG. 19B: Quantification of Ibal-positive area (%) in the hippocampus in 9-month-old PS19 and WT mice collected after 7 months of treatment. Data are mean±SEM. n=7-10/group. One-way ANOVA. FIG. 19C: Representative images of immunofluorescent staining GFAP in the hippocampus in 9-month-old PS19 and WT mice after 7 months of treatment. Scale bar, 100 μm. FIG. 19D: Quantification of GFAP-positive area (%) in the hippocampus in 9-month-old PS19 and WT mice collected after 7 months of treatment. Data are mean±SEM. n=7-10/group. One-way ANOVA.
Immunohistochemistry was performed as previously described (Kaufman et al., 2015, Ann Neurol 77:953-971) with slight modifications. […]

[3] = 9-month-old PS19 mice, 7 months of treatment

CN1CCN(CCOc2cc(OC3CCOCC3)c3c(Nc4c(Cl)ccc5c4OCO5)ncnc3c2)CC1 [saracatinib, N-(5-chloro-benzo[d][1,3]dioxol-4-yl)-7-(2-(4-methylpiperazin-1-yl)ethoxy)-5-(tetrahydro-2H-pyran-4-yloxy)quinazolin-4-amine]
hematological changes [1]: no significant hematological changes
serious adverse events, laboratory abnormalities, early terminations [1]: no apparent study-related serious adverse events (SAEs), significant laboratory abnormalities, or early terminations
estimated human brain concentration ([2]; 50 mg saracatinib free base): 3 to 7 nM
estimated human brain concentration ([2]; 100 mg saracatinib free base): 7 to 27 nM
estimated human brain concentration ([2]; 125 mg saracatinib free base): 8 to 46 nM
trough CSF ([2]; 50 mg saracatinib free base daily): 0.9 to 2.2 nM
free concentration of saracatinib in plasma ([2]; 50 mg): 2.6 to 6.5 nM
trough CSF ([2]; 100 mg saracatinib free base daily): 2.1 to 8.3 nM
free concentration of saracatinib in plasma ([2]; 100 mg): 6.2 to 24.4 nM
trough CSF ([2]; 125 mg saracatinib free base daily): 2.5 to 14.0 nM
free concentration of saracatinib in plasma ([2]; 125 mg): 7.4 to 41.2 nM
increase in CSF level ([2]; from 50 to 100 mg): three-fold
increase in CSF level ([2]; from 100 to 125 mg): two-fold
AT8 (phospho-Tau Ser202/Thr205) immunoreactivity in DG and CA1 (PS19 mice; [3]): significantly mitigates the increase
CD68 immunoreactivity in Iba1-immunoreactive area of CA3 (PS19 mice; [3]): almost completely prevented the increase
SV2A immunoreactivity in CA3 (PS19 mice; [3]): fully rescued the reduction
astrocytosis (GFAP-immunoreactive area in dentate gyrus) (PS19 mice; [3]): significantly attenuated
gliosis (Iba1, GFAP) in hippocampus, low magnification survey (PS19 mice; [3]): unaffected
PHF-1 (phospho-Tau Ser396/Ser404) immunoreactive area in CA1 (PS19 mice; 9-month-old PS19 mice, 7 months of treatment, vs Vehicle): significant decrease
PY18 Tau levels (PS19 mice; AZD0530-treated PS19 samples): no change

Source: patent publication US11241434B2, “Compositions and methods for improving cognition in a subject” (Yale University, priority 2013, dated 2022)
